Source: ChEMBL document CHEMBL5465560, “Selectivity Literature for EUbOPEN Chemogenomic Library” (2024)

Tests used:
[1] = biological target: LIM domain kinase 2 (Homo sapiens) (UniProt P53671); experiment: Selectivity interaction (KinomeScan (DiscoverX)) EUB0000666a LIMK2; conditions: at 10 µM
[2] = biological target: Sodium- and chloride-dependent GABA transporter 1 (Homo sapiens) (UniProt P30531); experiment: Selectivity interaction (Eurofins CEREP Diversity Profile (receptors and ion channels)) EUB0000279b SLC6A1; conditions: at 10 µM
[3] = biological target: Casein kinase I isoform alpha (Homo sapiens, UniProt P48729); experiment: Selectivity interaction (ActivX KiNativ screen (kinase selectivity in THP-1 cell lysates)) EUB0000639a CSNK1A1; assay type: subcellular; conditions: lysate, at 0.04 µM
[4] = biological target: Ephrin type-A receptor 2 (Homo sapiens) (UniProt P29317); experiment: Selectivity interaction (ActivX KiNativ screen (kinase selectivity in THP-1 cell lysates)) EUB0000639a EPHA2; assay type: subcellular; conditions: lysate
[5] = biological target: Myosin-IIIa (Homo sapiens) (UniProt Q8NEV4); experiment: Selectivity interaction (Ambit KINOMEscan and KiNATiv profiling in Jurkat cells) EUB0000090b MYO3A; assay type: cell-based; conditions: at 1 µM
[6] = biological target: T1, Phosphorylase b kinase gamma catalytic chain, liver/testis isoform (Homo sapiens) (UniProt P15735); conditions: at 10 µM
T1 sequence (whole entry): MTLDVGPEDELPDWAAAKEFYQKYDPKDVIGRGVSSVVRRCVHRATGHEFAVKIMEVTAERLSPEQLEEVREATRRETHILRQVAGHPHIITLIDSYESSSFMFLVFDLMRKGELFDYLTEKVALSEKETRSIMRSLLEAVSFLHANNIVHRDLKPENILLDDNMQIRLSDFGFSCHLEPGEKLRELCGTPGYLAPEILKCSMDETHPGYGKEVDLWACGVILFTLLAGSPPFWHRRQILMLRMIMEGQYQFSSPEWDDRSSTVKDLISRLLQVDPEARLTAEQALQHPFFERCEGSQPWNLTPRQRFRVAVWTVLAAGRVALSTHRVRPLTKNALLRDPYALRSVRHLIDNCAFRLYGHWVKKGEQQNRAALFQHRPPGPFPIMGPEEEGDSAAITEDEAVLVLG

[7] = biological target: T2, Serine/threonine-protein kinase 3 (Homo sapiens) (UniProt Q13188); experiment: Selectivity interaction (KinomeScan (DiscoverX)) EUB0000607a STK3; conditions: at 10 µM
T2 sequence (whole entry): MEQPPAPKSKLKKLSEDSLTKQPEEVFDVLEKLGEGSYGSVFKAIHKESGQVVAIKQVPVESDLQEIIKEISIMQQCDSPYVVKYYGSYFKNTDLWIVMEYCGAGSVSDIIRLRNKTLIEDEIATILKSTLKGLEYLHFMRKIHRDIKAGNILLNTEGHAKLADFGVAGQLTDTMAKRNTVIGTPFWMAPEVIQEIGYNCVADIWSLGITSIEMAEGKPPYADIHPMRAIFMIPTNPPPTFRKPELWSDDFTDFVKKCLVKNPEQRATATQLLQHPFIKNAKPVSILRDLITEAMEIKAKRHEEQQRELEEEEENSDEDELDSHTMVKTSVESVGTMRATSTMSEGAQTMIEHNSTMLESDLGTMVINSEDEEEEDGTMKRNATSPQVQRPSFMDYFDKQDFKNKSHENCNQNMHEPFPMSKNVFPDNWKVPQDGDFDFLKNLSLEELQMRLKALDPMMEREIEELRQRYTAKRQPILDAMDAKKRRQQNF

[8] = biological target: T3, Tyrosine-protein kinase Mer (Homo sapiens) (UniProt Q12866); experiment: Selectivity interaction (SelectScreen profiling (Invitrogen)) EUB0000607a MERTK; conditions: at 2 µM
T3 sequence (whole entry): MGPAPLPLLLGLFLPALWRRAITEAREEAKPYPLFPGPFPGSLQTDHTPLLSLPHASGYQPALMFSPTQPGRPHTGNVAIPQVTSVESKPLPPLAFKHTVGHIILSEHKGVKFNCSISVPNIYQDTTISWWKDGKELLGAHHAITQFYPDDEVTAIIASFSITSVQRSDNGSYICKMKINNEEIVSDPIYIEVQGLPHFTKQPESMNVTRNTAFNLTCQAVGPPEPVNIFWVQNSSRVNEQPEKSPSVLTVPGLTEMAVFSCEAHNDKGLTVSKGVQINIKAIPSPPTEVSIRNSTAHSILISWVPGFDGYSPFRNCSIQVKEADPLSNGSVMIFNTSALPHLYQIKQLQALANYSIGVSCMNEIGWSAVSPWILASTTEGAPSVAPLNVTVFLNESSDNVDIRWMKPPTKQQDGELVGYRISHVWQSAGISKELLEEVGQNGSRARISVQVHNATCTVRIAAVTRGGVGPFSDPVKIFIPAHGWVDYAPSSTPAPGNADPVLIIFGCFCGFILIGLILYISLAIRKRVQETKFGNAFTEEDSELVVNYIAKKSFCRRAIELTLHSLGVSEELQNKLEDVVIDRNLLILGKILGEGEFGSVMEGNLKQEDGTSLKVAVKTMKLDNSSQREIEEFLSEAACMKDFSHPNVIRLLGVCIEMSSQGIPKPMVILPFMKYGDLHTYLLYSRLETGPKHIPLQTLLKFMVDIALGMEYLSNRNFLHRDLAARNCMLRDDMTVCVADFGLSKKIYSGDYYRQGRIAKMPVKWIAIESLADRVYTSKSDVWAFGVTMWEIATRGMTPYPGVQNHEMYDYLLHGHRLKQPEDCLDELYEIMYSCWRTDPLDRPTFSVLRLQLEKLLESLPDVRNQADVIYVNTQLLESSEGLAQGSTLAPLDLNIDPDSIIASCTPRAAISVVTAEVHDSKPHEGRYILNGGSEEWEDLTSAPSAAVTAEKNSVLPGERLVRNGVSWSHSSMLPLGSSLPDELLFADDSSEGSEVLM

Sequence of Ephrin type-A receptor 2 (Homo sapiens) (P29317 whole entry): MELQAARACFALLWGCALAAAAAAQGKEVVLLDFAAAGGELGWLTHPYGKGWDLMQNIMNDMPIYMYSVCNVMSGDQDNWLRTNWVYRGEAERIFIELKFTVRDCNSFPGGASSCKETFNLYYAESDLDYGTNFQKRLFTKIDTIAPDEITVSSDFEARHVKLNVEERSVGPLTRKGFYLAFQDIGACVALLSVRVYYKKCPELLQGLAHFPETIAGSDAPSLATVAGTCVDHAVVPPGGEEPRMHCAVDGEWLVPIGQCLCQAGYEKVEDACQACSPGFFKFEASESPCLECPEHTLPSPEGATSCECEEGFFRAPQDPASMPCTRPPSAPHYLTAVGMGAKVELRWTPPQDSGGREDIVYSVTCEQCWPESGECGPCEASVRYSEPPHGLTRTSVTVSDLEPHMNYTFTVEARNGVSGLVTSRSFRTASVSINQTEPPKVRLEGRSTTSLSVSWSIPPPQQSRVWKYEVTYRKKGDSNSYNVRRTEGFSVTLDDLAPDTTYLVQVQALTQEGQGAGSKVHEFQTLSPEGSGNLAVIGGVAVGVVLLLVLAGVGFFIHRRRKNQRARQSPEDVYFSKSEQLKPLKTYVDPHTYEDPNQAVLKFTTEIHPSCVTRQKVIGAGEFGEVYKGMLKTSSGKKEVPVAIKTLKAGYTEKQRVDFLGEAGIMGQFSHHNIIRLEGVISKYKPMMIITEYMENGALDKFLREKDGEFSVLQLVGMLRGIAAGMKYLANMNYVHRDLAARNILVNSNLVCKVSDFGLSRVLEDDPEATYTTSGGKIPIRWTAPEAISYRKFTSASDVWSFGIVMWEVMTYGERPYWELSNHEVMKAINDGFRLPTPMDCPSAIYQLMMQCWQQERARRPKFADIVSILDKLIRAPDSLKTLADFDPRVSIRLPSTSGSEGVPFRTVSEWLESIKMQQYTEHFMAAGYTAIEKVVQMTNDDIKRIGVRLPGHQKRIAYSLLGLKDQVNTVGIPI
Sequence of Casein kinase I isoform alpha (P48729 2-337 limits assumed): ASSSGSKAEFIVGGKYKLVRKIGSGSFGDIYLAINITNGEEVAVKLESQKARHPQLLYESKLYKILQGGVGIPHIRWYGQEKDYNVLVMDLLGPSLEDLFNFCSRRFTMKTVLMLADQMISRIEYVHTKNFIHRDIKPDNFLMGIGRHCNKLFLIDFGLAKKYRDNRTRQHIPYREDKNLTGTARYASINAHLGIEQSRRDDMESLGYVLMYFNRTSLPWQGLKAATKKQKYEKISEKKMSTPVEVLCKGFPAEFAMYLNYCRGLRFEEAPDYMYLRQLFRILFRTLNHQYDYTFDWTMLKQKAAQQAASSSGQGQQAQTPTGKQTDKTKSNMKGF
Sequence of Sodium- and chloride-dependent GABA transporter 1 (Homo sapiens) (P30531 whole entry, looked up, canonical isoform): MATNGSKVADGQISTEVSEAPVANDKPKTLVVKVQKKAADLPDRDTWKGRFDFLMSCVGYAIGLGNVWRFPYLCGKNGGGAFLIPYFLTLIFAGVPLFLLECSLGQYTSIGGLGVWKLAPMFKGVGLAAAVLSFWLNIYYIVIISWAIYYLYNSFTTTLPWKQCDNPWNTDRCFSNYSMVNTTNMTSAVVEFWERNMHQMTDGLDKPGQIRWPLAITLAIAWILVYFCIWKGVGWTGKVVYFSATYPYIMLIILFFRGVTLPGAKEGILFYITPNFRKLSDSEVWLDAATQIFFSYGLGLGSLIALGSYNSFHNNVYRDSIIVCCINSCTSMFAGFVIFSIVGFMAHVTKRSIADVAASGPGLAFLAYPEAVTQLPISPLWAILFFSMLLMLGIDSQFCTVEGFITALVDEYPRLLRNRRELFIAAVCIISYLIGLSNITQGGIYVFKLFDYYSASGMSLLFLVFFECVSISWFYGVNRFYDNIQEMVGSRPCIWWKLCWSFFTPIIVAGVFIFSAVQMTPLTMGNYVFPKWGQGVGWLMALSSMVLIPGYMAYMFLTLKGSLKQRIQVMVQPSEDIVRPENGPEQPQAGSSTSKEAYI
Sequence of Myosin-IIIa (Homo sapiens) (Q8NEV4 whole entry, canonical isoform): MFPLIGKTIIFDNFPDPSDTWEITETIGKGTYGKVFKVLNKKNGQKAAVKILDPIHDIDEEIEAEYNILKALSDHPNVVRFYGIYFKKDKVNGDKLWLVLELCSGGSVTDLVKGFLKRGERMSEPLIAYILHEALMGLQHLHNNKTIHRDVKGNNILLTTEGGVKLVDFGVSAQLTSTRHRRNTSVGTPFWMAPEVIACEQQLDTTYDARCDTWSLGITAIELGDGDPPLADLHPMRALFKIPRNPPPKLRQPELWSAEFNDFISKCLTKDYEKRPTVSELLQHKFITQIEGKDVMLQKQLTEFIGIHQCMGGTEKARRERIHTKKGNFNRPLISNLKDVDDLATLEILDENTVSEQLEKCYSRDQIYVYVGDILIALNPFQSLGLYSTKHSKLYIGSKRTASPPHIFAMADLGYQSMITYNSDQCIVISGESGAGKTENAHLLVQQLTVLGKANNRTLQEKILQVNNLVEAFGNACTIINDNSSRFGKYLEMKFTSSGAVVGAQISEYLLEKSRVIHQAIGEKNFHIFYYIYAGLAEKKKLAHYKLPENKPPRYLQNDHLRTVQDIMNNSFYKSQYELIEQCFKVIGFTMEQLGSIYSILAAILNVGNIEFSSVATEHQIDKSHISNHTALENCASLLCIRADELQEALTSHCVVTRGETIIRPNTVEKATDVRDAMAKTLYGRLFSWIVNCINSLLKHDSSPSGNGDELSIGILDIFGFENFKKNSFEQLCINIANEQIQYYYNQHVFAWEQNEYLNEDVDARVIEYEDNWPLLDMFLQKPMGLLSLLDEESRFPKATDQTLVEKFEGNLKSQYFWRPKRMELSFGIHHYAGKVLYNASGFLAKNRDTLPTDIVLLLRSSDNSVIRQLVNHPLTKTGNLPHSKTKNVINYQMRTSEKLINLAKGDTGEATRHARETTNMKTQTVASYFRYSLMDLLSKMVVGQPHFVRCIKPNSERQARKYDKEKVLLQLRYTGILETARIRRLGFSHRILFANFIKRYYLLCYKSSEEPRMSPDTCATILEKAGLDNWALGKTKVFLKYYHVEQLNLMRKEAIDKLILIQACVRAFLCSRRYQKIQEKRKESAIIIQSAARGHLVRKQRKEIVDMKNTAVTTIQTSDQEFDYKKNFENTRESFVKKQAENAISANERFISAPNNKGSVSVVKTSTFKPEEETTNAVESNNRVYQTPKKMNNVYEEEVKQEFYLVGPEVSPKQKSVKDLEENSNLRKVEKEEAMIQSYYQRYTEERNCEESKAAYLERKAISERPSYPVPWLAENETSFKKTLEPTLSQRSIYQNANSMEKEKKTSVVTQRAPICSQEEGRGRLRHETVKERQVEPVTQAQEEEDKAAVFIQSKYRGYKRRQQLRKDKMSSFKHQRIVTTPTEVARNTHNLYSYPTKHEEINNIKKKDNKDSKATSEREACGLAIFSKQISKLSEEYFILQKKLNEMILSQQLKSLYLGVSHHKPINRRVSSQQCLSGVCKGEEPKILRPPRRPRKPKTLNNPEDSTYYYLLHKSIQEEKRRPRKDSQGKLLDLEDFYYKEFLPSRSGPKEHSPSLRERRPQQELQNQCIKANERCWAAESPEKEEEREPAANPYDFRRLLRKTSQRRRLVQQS
Sequence of LIM domain kinase 2 (Homo sapiens) (P53671 whole entry, looked up, the tested form may be a part): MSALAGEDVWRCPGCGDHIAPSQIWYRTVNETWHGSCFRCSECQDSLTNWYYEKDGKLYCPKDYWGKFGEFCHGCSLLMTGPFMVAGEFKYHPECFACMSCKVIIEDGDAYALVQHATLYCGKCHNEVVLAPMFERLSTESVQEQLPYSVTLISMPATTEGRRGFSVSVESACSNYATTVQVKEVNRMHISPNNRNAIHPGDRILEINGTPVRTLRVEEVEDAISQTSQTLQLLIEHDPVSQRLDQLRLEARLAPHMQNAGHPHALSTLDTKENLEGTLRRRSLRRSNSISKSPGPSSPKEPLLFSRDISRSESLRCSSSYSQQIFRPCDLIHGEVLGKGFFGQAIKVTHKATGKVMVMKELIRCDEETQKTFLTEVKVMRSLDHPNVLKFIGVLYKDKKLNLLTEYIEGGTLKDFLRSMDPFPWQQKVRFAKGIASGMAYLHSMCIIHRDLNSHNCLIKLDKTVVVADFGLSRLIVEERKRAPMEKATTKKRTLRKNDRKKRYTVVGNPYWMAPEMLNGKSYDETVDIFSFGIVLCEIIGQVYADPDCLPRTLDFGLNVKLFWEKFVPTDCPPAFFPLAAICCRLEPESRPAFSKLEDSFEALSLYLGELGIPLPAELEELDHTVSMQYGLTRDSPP

For `O=C(NOC[C@H](O)CO)c1ccc(F)c(F)c1Nc1ccc(I)cc1F`, the % of control [1] was 100%.

`CC(=O)c1cc(-c2ccccc2OCC2CC2)c2ncccn12` showed a % of control [2] of 107%.

`CC[C@@H]1[C@H](F)C(=O)N[C@@H]1COc1nccc2cc(C(N)=O)c(OC)cc12` [ZIMLOVISERTIB] gave a % of inhibition [3] of -2.5%, a % of inhibition ([4]; at 0.01 µM) of -12.3% and a % of inhibition ([4]; at 0.04 µM) of -11.2%. It also gave a % of inhibition ([4]; at 0.2 µM) of 2.2%, a % of inhibition ([4]; at 1 µM) of -12.7% and a % of inhibition ([4]; at 5 µM) of 14.3%.

In the case of `CN(C)C/C=C/C(=O)Nc1ccc(C(=O)N2CCCC(Nc3ncc(Cl)c(-c4c[nH]c5ccccc45)n3)C2)cc1` (configuration not stated), the % of control [5] is reported as 100%.

`Cc1cc([C@@H](C)Nc2ccccc2C(=O)O)c2nc(N3CCOCC3)cc(=O)n2c1` [AZD-6482] was tested, and the % of control [6] was 100%.

Work on `CNC(=O)Nc1ccc(-c2nc(N3CC4CCC(C3)O4)c3cnn(C4CCC5(CC4)OCCO5)c3n2)cc1` yielded a % of control [7] of 97% and a % of inhibition [8] of 1%.
